Measured values from PubChem BioAssay (NCI).
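Growth conditions: 96-well plates. Treatment: test compound, 48 hours, 5 concentrations. Analysis: linear interpolation between bracketing concentrations; unreached endpoints set to highest concentration. GI50 is the concentration that inhibits growth by half. TGI: total growth inhibition.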

Assays:
Assay in all cases: NCI tumour cell line growth inhibition, 48 h
SW-620 colon = test system: SW-620 colon
IGROV1 ovarian = test system: IGROV1 ovarian
NCI-H522 lung = test system: NCI-H522 lung

Row | SMILES | TGI (SW-620 colon) | TGI (IGROV1 ovarian) | TGI (NCI-H522 lung) | GI50 (SW-620 colon) | GI50 (IGROV1 ovarian)
1 | Cc1ccc(NC(=O)c2cc(S(=O)(=O)Nc3nc4ncccc4[nH]3)c(SSc3cc(Cl)c(C(=O)Nc4ccc(C)cc4)cc3S(=O)(=O)Nc3nc4ncccc4[nH]3)cc2Cl)cc1 | > 100 µM | > 100 µM | > 100 µM |  | 
2 | N#Cc1cnc(N)nc1NCC1(CO)CC(CCc2ccccc2)C1 (stereo not drawn) | > 100 µM | > 100 µM | > 100 µM |  | 
3 | COc1ccccc1C(=O)c1c(NCc2ccccc2)c(=O)c1=O | 37.8 µM | 95 µM | 31.8 µM |  | 
4 | CC(=O)Nc1ccc(C2SCc3nc4ccccc4n32)cc1 (stereo not drawn) | > 100 µM | > 100 µM | > 100 µM |  | 
5 | CC(=O)O[C@H]1[C@H](OC(=O)CC(C)(O)CC(=O)O)C[C@]2(C)C3=C(CCC2C1(C)C)[C@]1(C)CC[C@H]([C@H]2CC[C@H](C(C)(C)O)OC2O)[C@@]1(C)[C@@H](O)C3 (stereo partly drawn) | 27.2 µM | 30.8 µM |  |  | 
6 | COc1ccc2c(c1)CCc1c-2n(CCN2CCCCC2)c2ccc(OC)cc12 | > 100 µM | > 100 µM | > 100 µM |  | 
7 | C=C1C2C[C@@H]3O[C@H]4C[C@H]5O[C@@]6(C[C@@H]7O[C@]8(C[C@H](C)[C@@H]9O[C@@H]%10CC(CO)O[C@@H]%10C[C@@H]9O8)C[C@H](C)[C@@H]7O6)C[C@H]5O[C@H]4[C@H](C)[C@H]3OC(=O)C[C@H]3CC[C@@H]4OC5[C@H]6O[C@]7(CC[C@H]8CC(=C)[C@H](CC[C@@H](C[C@H]1C)O2)O8)CC6O[C@@H]5[C@@H](O7)[C@H]4O3 (stereo partly drawn) | > 1 µM | > 1 µM | < 0.0001 µM |  | 
8 | CCOC(=O)c1ccc(N=c2sc3ccccc3nc2Nc2ccc(C(=O)OCC)cc2)cc1 | > 100 µM | > 100 µM | 77.6 µM |  | 
9 | CO/N=C(\C)c1cccc(Nc2c3ccccc3nc3occc23)c1 |  | 19.4 µM | 7.64 µM |  | 
10 | CC1=C(C(=O)Nc2ccccc2)C2(CCCCC2)C(C#N)=C(SCC(=O)Nc2ccc(Br)cc2)N1 | > 100 µM | 14.6 µM | 7.25 µM |  | 
11 | CCCCn1c2c(n(CCCC)c1=S)-c1c(n(CCCC)c(=S)n1CCCC)SSc1c(n(CCCC)c(=S)n1CCCC)-c1c(n(CCCC)c(=S)n1CCCC)SSc1c(n(CCCC)c(=S)n1CCCC)-c1c(n(CCCC)c(=S)n1CCCC)SS2 | > 14.8 µM | 8.64 µM | 1.86 µM |  | 
12 | C=CC(Cl)(CBr)CCC(Br)C(C)(C)Cl (stereo not drawn) | 26.2 µM | 26.3 µM | 24.4 µM |  | 
13 | CC(C)/C(Cl)=N\OC(=O)Nc1cccc(Cl)c1 | 9.83 µM | 35 µM | 3.33 µM |  | 
14 | OC(c1cc(C23CC4CC(CC(C4)C2)C3)nc2c(Cl)cc(Cl)cc12)C1CCCCN1 (stereo not drawn) |  | 3.45 µM | 3.33 µM |  | 
15 | COC(=O)C1(C)C=CC(=O)C2(C)C1C(O)C1OC3CC(c4ccoc4)C(C)=C3C1(C)C2CC(=O)O (stereo not drawn) | > 100 µM | > 100 µM | > 100 µM |  | 
16 | CCCCCCCCCCCCC(O)[C@H]1CC[C@H](C(O)CCCCCC(=O)CCCCC2CC(C(C)=O)C(=O)O2)O1 (stereo partly drawn) | > 100 µM | 71.6 µM | 25.6 µM | 4.08 µM | 4.3 µM
17 | Cc1ccc(S(=O)(=O)NNCNC(=O)c2ccccc2)cc1 | > 100 µM | > 100 µM | > 100 µM |  | 
18 | CC(C)(C)c1cc(O)ccc1O | > 100 µM | > 100 µM | > 39.8 µM |  | 
